# From ChEMBL document CHEMBL1201862, “PubChem BioAssay data set” (2004)
#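 The compound was tested at five concentrations on cells cultured in 96-well plates, with a 48-hour exposure period. GI50 marks 50% less growth.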 Active and inactive are the calls of the source. Cut-off read from the data, not from the text of the source: active = GI50 up to about 1.1 µM and inactive = higher.
# What was measured:
# Experiment in all cases: NCI-60 cell line screen, 48 h
# [1] = system: 786-0
# [2] = system: A498
# [3] = system: A549
# [4] = system: ACHN
# [5] = system: CAKI-1
# [6] = system: CCRF-CEM
# [7] = system: COLO 205
# [8] = system: DU-145
# [9] = system: EKVX
# [10] = system: HCC 2998
# [11] = system: HCT-116
# [12] = system: HCT-15
# [13] = system: HL-60
# [14] = system: HOP-62
# [15] = system: HOP-92
# [16] = system: HT-29
# [17] = system: Hs-578T
# [18] = system: K562
# [19] = system: KM12
# [20] = system: LOX IMVI
# [21] = system: M14
# [22] = system: MCF7
# [23] = system: MDA-MB-231
# [24] = system: MDA-MB-435
# [25] = system: MDA-N
# [26] = system: NCI-H226
# [27] = system: NCI-H23
# [28] = system: NCI-H460
# [29] = system: NCI/ADR-RES
# [30] = system: OVCAR-3
# [31] = system: OVCAR-4
# [32] = system: OVCAR-5
# [33] = system: OVCAR-8
# [34] = system: PC-3
# [35] = system: RPMI-8226
# [36] = system: RXF 393
# [37] = system: SF-268
# [38] = system: SF-295
# [39] = system: SK-MEL-28
# [40] = system: SK-MEL-2
# [41] = system: SK-MEL-5
# [42] = system: SK-OV-3
# [43] = system: SN12C
# [44] = system: SNB-19
# [45] = system: SNB-75
# [46] = system: SR
# [47] = system: SW-620
# [48] = system: T47D
# [49] = system: U-251
# [50] = system: UACC-257
# [51] = system: UACC-62
# [52] = system: UO-31
# [53] = system: BT-549
# [54] = system: IGROV-1
# [55] = system: MOLT-4
# [56] = system: Malme-3M
# [57] = system: SF-539
# [58] = system: TK-10
smiles,measurement,setting,value
C=CC(C)(C)C1(CC(OC)OC)C(=O)N(C)c2ccccc21 (stereo unspecified),GI50,[1],> 25 µM (inactive)
same,GI50,[2],> 25 µM (inactive)
same,GI50,[3],> 25 µM (inactive)
same,GI50,[4],> 25 µM (inactive)
same,GI50,[5],> 25 µM (inactive)
same,GI50,[6],> 25 µM (inactive)
same,GI50,[7],> 25 µM (inactive)
same,GI50,[8],> 25 µM (inactive)
same,GI50,[9],> 25 µM (inactive)
same,GI50,[10],> 25 µM (inactive)
same,GI50,[11],> 25 µM (inactive)
same,GI50,[12],> 25 µM
same,GI50,[13],> 25 µM (inactive)
same,GI50,[14],> 25 µM (inactive)
same,GI50,[15],> 25 µM (inactive)
same,GI50,[16],> 25 µM (inactive)
same,GI50,[17],> 25 µM (inactive)
same,GI50,[18],> 25 µM (inactive)
same,GI50,[19],> 25 µM (inactive)
same,GI50,[20],> 25 µM (inactive)
same,GI50,[21],> 25 µM (inactive)
same,GI50,[22],> 25 µM (inactive)
same,GI50,[23],> 25 µM (inactive)
same,GI50,[24],> 25 µM (inactive)
same,GI50,[25],> 25 µM (inactive)
same,GI50,[26],> 25 µM (inactive)
same,GI50,[27],> 25 µM (inactive)
same,GI50,[28],> 25 µM (inactive)
same,GI50,[29],> 25 µM (inactive)
same,GI50,[30],> 25 µM (inactive)
same,GI50,[31],> 25 µM (inactive)
same,GI50,[32],> 25 µM (inactive)
same,GI50,[33],> 25 µM (inactive)
same,GI50,[34],> 25 µM (inactive)
same,GI50,[35],> 25 µM (inactive)
same,GI50,[36],> 25 µM (inactive)
same,GI50,[37],> 25 µM (inactive)
same,GI50,[38],> 25 µM (inactive)
same,GI50,[39],> 25 µM (inactive)
same,GI50,[40],> 25 µM (inactive)
same,GI50,[41],> 25 µM (inactive)
same,GI50,[42],> 25 µM (inactive)
same,GI50,[43],> 25 µM (inactive)
same,GI50,[44],> 25 µM (inactive)
same,GI50,[45],> 25 µM (inactive)
same,GI50,[46],> 25 µM (inactive)
same,GI50,[47],> 25 µM (inactive)
same,GI50,[48],> 25 µM (inactive)
same,GI50,[49],> 25 µM (inactive)
same,GI50,[50],> 25 µM (inactive)
same,GI50,[51],> 25 µM (inactive)
same,GI50,[52],> 25 µM (inactive)
O=C=NCCCCCCN1C(=O)N2C(c3ccccc3)N(CCCCCCN=C=O)C(=O)N2C1c1ccccc1 (stereo unspecified),GI50,[1],> 100 µM (inactive)
same,GI50,[2],> 100 µM (inactive)
same,GI50,[3],> 100 µM (inactive)
same,GI50,[4],> 100 µM (inactive)
same,GI50,[53],> 100 µM (inactive)
same,GI50,[5],> 100 µM (inactive)
same,GI50,[6],79.3 µM (inactive)
same,GI50,[7],> 100 µM (inactive)
same,GI50,[8],> 100 µM (inactive)
same,GI50,[9],> 100 µM (inactive)
same,GI50,[10],> 100 µM (inactive)
same,GI50,[11],> 100 µM (inactive)
same,GI50,[12],> 100 µM
same,GI50,[13],> 100 µM (inactive)
same,GI50,[14],> 100 µM (inactive)
same,GI50,[15],> 100 µM (inactive)
same,GI50,[16],> 100 µM (inactive)
same,GI50,[54],> 100 µM (inactive)
same,GI50,[18],> 100 µM (inactive)
same,GI50,[19],> 100 µM (inactive)
same,GI50,[20],> 100 µM (inactive)
same,GI50,[21],> 100 µM (inactive)
same,GI50,[22],> 100 µM (inactive)
same,GI50,[23],> 100 µM (inactive)
same,GI50,[24],> 100 µM (inactive)
same,GI50,[25],> 100 µM (inactive)
same,GI50,[55],62.1 µM (inactive)
same,GI50,[56],> 100 µM (inactive)
same,GI50,[26],> 100 µM (inactive)
same,GI50,[27],> 100 µM (inactive)
same,GI50,[28],> 100 µM (inactive)
same,GI50,[29],> 100 µM (inactive)
same,GI50,[30],> 100 µM (inactive)
same,GI50,[31],> 100 µM (inactive)
same,GI50,[32],> 100 µM (inactive)
same,GI50,[33],> 100 µM (inactive)
same,GI50,[34],> 100 µM (inactive)
same,GI50,[35],55 µM (inactive)
same,GI50,[36],> 100 µM (inactive)
same,GI50,[37],> 100 µM (inactive)
same,GI50,[38],> 100 µM (inactive)
same,GI50,[57],> 100 µM (inactive)
same,GI50,[39],> 100 µM (inactive)
same,GI50,[40],> 100 µM (inactive)
same,GI50,[41],> 100 µM (inactive)
same,GI50,[43],> 100 µM (inactive)
same,GI50,[44],> 100 µM (inactive)
same,GI50,[45],> 100 µM (inactive)
same,GI50,[46],65.2 µM (inactive)
same,GI50,[47],> 100 µM (inactive)
same,GI50,[58],> 100 µM (inactive)
same,GI50,[49],> 100 µM (inactive)
same,GI50,[50],> 100 µM (inactive)
same,GI50,[52],> 100 µM (inactive)
